{"source": "patent US20230181611A1", "about": "“REELIN/VEGF-C PRODUCTION/ACTIVATION PROMOTER AND SKIN EXTERNAL COMPOSITION USING THE SAME” (AMOREPACIFIC CORPORATION, priority 2021, published 2023)", "key": {"[1]": {"system": "reelin", "test": "Reelin cytokine analysis (ELISA)", "assay_type": "cell-based, human", "conditions": "HDLEC, 10 ppm, 48 hours, DMSO control = 100%, FIG. 2", "procedure": "After culturing human dermal lymphatic endothelial cells in 6 well plates for 24 hours, while the cells treated with DMSO were used as a control (reference, 100%), the cells were treated with the compound represented by Chemical Formula E-1 at a concentration of 10 ppm and cultured for 48 hours and then measured with respect to production and activity of reelin through a reelin cytokine analysis by using human ELISA Kit (Mybiosource, U.S.A.) according to a manual, and the results are shown in FIG. 2."}, "[2]": {"system": "Human dermal lymphatic endothelial cells (HDLEC)", "test": "Cytotoxicity analysis (WST-8 cell viability)", "assay_type": "cell-based", "conditions": "0 to 200 ppm (μg/ml), 24 hours and 72 hours, FIG. 1", "procedure": "Human dermal lymphatic endothelial cells (HDLEC, PromoCell, Germany) were newly cultured in 96 well dishes for one day and then treated with a compound represented by Chemical Formula E-1 (Biogenics Company) at each concentration of 0 ppm (μg/ml) to 200 ppm (μg/ml). The cells were cultured for 24 hours and 72 hours, and then measured with respect to absorbance at 450 nm by using a QuantiMax WST-8 Cell viability assay kit to check cell viability, and the results are shown in FIG. 1."}, "[3]": {"system": "VEGF-C", "test": "VEGF-C cytokine analysis (ELISA)", "assay_type": "cell-based, human", "conditions": "HDLEC, 1 ppm and 10 ppm, 48 hours, DMSO control = 100%, FIG. 3", "procedure": "After culturing human dermal lymphatic endothelial cells in 6 well plates for 24 hours, while the cells treated with DMSO as a control (reference, 100%), the cells were treated with the compound represented by Chemical Formula E-1 at each concentration of 1 ppm and 10 ppm and cultured for 48 hours and then measured with respect to production and activity of VEGF-C through a VEGF-C cytokine analysis by using a VEGFC human ELISA Kit (ThermoFisher, U.S.A.) according to a manual, and the results are shown in FIG. 3."}}, "data": [{"smiles": "CC1(C)[C@@H](O[C@H]2OC(C(=O)O)[C@@H](O)C(O)C2O[C@@H]2OC(C(=O)O)[C@@H](O)C(O)C2O)CC[C@]2(C)[C@H]3C(=O)C=C4[C@@H]5C[C@@](C)(C(=O)O)CC[C@]5(C)CC[C@@]4(C)[C@]3(C)CC[C@@H]12", "note": "(stereo partly drawn) [Chemical Formula E-1]", "values": [{"measurement": "production and activity of reelin compared with the control", "setting": "[1]", "result": "further improve production and activity of reelin"}, {"measurement": "cytotoxicity (cell viability)", "setting": "[2]", "result": "no cytotoxicity"}, {"measurement": "production and activity of VEGF-C compared with the control", "setting": "[3]", "result": "further improve production and activity of VEGF-C"}]}]}
